Measurements as given in patent publication US20250188075A1, “SUBSTITUTED HETEROCYCLIC CSNK1 INHIBITORS” (The Broad Institute, Inc., priority 2022, published 2025).
pIC50: −log10 of the molar value.

Tests used:
human CSNK1A1 = human CSNK1A1 (Homo sapiens (Human), UniProt P48729); assay: CSNK1A1 assay (ADP-Glo, 1 μM ATP); assay type: biochemical; conditions: median, read-out: CSNK1A1 Low ATP IC50 [mol/l] (median)
Procedure: CSNK1A1-inhibitory activity of compounds of the present invention in presence of 1 μM adenosine-tri-phosphate (ATP) was quantified employing the CSNK1A1 assay as described in the following paragraphs. In essence, the enzyme activity is measured by quantification of the adenosine-di-phosphate (ADP), which is generated as a co-product of the enzyme reaction, via the “ADP-Glo™ Kinase Assay” kit from the company Promega. This detection system works as follows: In a first step the ATP not consumed in the kinase reaction is quantitatively converted to CAMP employing an adenylate cyclase (“ADP-Glo-reagent”), then the adenylate cyclase is stopped and the ADP generated in the kinase reaction converted to ATP which generates in a luciferase-based reaction a glow-luminescence signal (“Kinase Detection Reagent”).
(§1) Recombinant fusion protein of N-terminal Glutathion-S-Transferase (GST) and full-length human CSNK1A1, expressed by baculovirus infected insect cells and purified via Glutathion affinity chromatography, was purchased from Life Technologies (product no. PV4174) and used as enzyme. As substrate for the kinase reaction the biotinylated peptide biotin-Ahx-KRRRAL-pS-VASLPGL (C-terminus in amide form) was used which can be purchased e.g. from the company Biosyntan (Berlin-Buch, Germany).
For the assay 50 nl of a 100-fold concentrated solution of the test compound in DMSO was pipetted into a white 1536-well microtiter plate (Greiner Bio-One, Frickenhausen, Germany), 2 μL of a solution of CSNK1A1 in aqueous assay buffer [50 mM HEPES pH 7.5, 10% (v/v) glycerol, 10 mM MgCl2, 50 mM NaCl, 1 mM dithiothreitol, 0.01% (w/v) bovine serum albumin, 0.01% (v/v) Triton X-100] were added and the mixture was incubated for 15 min at 22° C. to allow pre-binding of the test compounds to the enzyme before the start of the kinase reaction. Then the kinase reaction was started by the addition of 3 μL of a solution of ATP (1.67 μM=>final conc. in the 5 μL assay volume is 1 μM) and peptide substrate (50 μM=>final conc. in the 5 μL assay volume is 30 μM) in assay buffer and the resulting mixture was incubated for a reaction time of 30 min at 22° C. The concentration of CSNK1A1 was adjusted depending of the activity of the enzyme lot and was chosen appropriate to have the assay in the linear range, a typical concentrations are about 0.0375 ng/μL. The reaction was stopped by the addition of 2.5 μL of “ADP-Glo-reagent” (1:1.5 fold diluted with water) and the resulting mixture was incubated at 22° C. for 1 h to convert the ATP not consumed in the kinase reaction completely to CAMP. Subsequently 2.5 μL of the “kinase detection reagent” (1.2 fold more concentrated than recommended by the producer) were added, the resulting mixture was incubated at 22° C. for 1 h and then the luminescence measured with a suitable measurement instrument (e.g. Viewlux™ from Perkin-Elmer). The amount of emitted light was taken as a measure for the amount of ADP generated and thereby for the activity of the CSNK1A1.
(§2) The data were normalised (enzyme reaction without inhibitor=0% inhibition, all other assay components but no enzyme=100% inhibition).

[1] = Solubility assay (thermodynamic solubility); assay type: physicochemical; conditions: aqueous buffer, 24 h
human CSNK1G3 = human CSNK1G3 (Homo sapiens (Human), UniProt Q9Y6M4); assay: CSNK1G3 assay (ADP-Glo); assay type: biochemical; conditions: median, read-out: CSNK1G IC50 [mol/l] (median)
Procedure: CSNK1G3-inhibitory activity of compounds of the present invention in presence of 1 μM adenosine-tri-phosphate (ATP) was quantified employing the CSNK1G3 assay as described in the following paragraphs. In essence, the enzyme activity is measured by quantification of the adenosine-di-phosphate (ADP), which is generated as a co-product of the enzyme reaction, via the “ADP-Glo™ Kinase Assay” kit from the company Promega. This detection system works as follows: In a first step the ATP not consumed in the kinase reaction is quantitatively converted to CAMP employing an adenylate cyclase (“ADP-Glo-reagent”), then the adenylate cyclase is stopped and the ADP generated in the kinase reaction converted to ATP which generates in a luciferase-based reaction a glow-luminescence signal (“Kinase Detection Reagent”).
as §1, with “CSNK1G3,” for “CSNK1A1,”, “PV3838)” for “PV4174)”
For the assay 50 nl of a 100 fold concentrated solution of the test compound in DMSO was pipetted into a white 1536-well microtiter plate (Greiner Bio-One, Frickenhausen, Germany), 2 μL of a solution of CSNK1G3 in aqueous assay buffer [50 mM HEPES pH 7.5, 10% (v/v) glycerol, 10 mM MgCl2, 50 mM NaCl, 1 mM dithiothreitol, 0.01% (w/v) bovine serum albumin, 0.01% (v/v) Triton X-100] were added and the mixture was incubated for 15 min at 22° C. to allow pre-binding of the test compounds to the enzyme before the start of the kinase reaction. Then the kinase reaction was started by the addition of 3 μL of a solution of ATP ([…]=>final conc. in the 5 μL assay volume is 1 M) and peptide substrate (50 μM=>final conc. in the 5 μL assay volume is 30 μM) in assay buffer and the resulting mixture was incubated for a reaction time of 30 min at 22° C. The concentration of CSNK1G3 was adjusted depending of the activity of the enzyme lot and was chosen appropriate to have the assay in the linear range, a typical concentration is about 0.06 ng/μL. The reaction was stopped by the addition of 2.5 μL of “ADP-Glo-reagent” (1:1.5 fold diluted with water) and the resulting mixture was incubated at 22° C. for 1 h to convert the ATP not consumed in the kinase reaction completely to CAMP. Subsequently 2.5 μL of the “kinase detection reagent” (1.2 fold more concentrated than recommended by the producer) were added, the resulting mixture was incubated at 22° C. for 1 h and then the luminescence measured with a suitable measurement instrument (e.g. Viewlux™ from Perkin-Elmer). The amount of emitted light was taken as a measure for the amount of ADP generated and thereby for the activity of the CSNK1G3.
as §2

Sequence of human CSNK1A1 (P48729 whole entry): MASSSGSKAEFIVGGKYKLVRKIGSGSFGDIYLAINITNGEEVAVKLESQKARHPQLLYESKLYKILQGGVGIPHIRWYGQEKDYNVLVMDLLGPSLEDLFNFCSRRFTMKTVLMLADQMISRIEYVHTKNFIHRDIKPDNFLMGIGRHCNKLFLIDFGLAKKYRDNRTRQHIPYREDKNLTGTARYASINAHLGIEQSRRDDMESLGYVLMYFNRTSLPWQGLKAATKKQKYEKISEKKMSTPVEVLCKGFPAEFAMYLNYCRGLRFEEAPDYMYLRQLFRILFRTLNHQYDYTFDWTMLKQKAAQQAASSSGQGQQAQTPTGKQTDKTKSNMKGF
Sequence of human CSNK1G3 (Q9Y6M4 whole entry): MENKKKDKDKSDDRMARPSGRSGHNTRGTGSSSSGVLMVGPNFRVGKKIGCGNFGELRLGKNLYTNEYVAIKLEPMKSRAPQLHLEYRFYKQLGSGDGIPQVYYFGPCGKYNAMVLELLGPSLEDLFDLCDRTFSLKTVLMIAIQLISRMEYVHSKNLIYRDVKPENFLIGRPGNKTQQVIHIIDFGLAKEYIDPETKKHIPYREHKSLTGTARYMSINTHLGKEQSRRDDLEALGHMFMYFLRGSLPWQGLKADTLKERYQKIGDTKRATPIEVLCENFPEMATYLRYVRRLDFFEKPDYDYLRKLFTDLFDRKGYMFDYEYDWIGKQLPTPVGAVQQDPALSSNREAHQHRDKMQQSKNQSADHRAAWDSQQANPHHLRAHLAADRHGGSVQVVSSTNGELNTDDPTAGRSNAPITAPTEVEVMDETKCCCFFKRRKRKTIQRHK

| SMILES | pIC50 (human CSNK1A1) | Thermodynamic Solubility [mg/l] (mean) [1] [mg/L] | Thermodynamic Solubility [μmol/L] (mean) [1] [µmol/L] | pIC50 (human CSNK1G3) |
| --- | --- | --- | --- | --- |
| O=C(Nc1cc(-c2[nH]c3ccc(F)nc3c2-c2ccccn2)ccn1)[C@@H](CC(F)F)c1ccc(F)cc1 [Example C2, reference compound] | 8.92 | 0.20 | 0.40 | 8.62 |
| O=C(Nc1cc(-c2[nH]c3c(OCC(F)F)ncnc3c2-c2ccccn2)ccn1)[C@@H](CC(F)F)c1ccc(F)cc1 [Example C3, reference compound] | 8.51 | <0.10 | <0.18 | 8.21 |
